Laboratory results reported in patent US9364479B2, “Use of a receptor-type kinase modulator for treating polycystic kidney disease” (SYMPHONY EVOLUTION, INC., priority 2010, dated 2016).
Marks after values point to notes of the source that are not given here.

Legend:
[1] = tested on: Corticotropin Releasing Factor, Non-selective; assay: NovaScreen assay; format: binding
H1975 xenografts = assay: Immunohistochemical analysis of H1975 xenografts (TUNEL, CD31, Ki67); format: in vivo, mouse; conditions: 14-day dosing
Protocol: (§1) For immunohistochemical analysis of H1975, MDA-MB-231 and other xenografts, tumors were excised after euthanasia and fixed in zinc fixative (BD Biosciences) for 48 h before being processed into paraffin blocks. Serial sections at 5 μm were obtained from the area of largest possible surface for each tumor and stained using standard methods. The following antibodies were used: Ki67 (SP6; Labvision), CD31 (MECA.32; BD Biosciences), pERK^Thr202/Tyr204 (phospho-p44/42 mitogen-activated protein kinase; Cell Signaling Technology), pAKT^Ser473 (Cell Signaling Technology), and pEGFR^Tyr1068 (Cell Signaling Technology). For immunofluorescent staining, sections were then incubated with Alexa 594-conjugated goat anti-rabbit secondary antibody (Invitrogen) and mounted in Fluorescent Mounting Medium (DAKO) containing 4′,6-diamidino-2-phenylindole (Molecular Probes) as a nuclear counterstain. Fluorescent staining was visualized using a Zeiss Axiolmager and digitally captured using a Zeiss high-resolution camera coupled to AxioVision image analysis software. Two to three nonoverlapping representative fields were captured at ×200 or ×400 magnification depending on histologic readout and quantified using the integrated morphometric analysis functions in Metamorph software (Universal Imaging Corp.). Apoptotic cells were detected using terminal deoxynucleotidyl transferase-mediated dUTP nick end labeling in situ cell death detection kit according to the manufacturer's instructions (Roche Diagnostics GmbH).
CD31-positive tumor vessels, Ki67-positive proliferating cells, and pERK staining in each tumor section were identified and quantified using the integrated morphometric analysis functions in the ACIS automatic cellular imaging system (Clarient, Inc.) and reviewed by a blinded observer. Number of CD31-positive vessels were identified across 5 to 10 randomly chosen fields of equal size at ×100 magnification in viable tumor tissue and calculated as number of vessels per square millimeter for each tumor, averaged for each treatment group, and compared with vehicle-treated controls. Percentage Ki67-positive cells were calculated as the ratio between Ki67-positive cells divided by the total number of cells identified across 5 to 10 randomly chosen fields of equal size in viable tumor tissue. The results for each tumor and treatment group were averaged and compared with vehicle-treated controls. The level of pERK staining was determined as described above and calculated as the ratio of antibody staining divided by the total number of cells identified, averaged for each treatment group, and compared with vehicle-treated controls.
(§2) Results are presented as mean±SD or SE as indicated for each graph or table. For IC50 comparison in the A431 cell viability experiment, two sample Student's t tests were applied to determine P values for each IC50 pair assuming that the random fluctuations of replicates around the dose-response curve are distributed [log]normally with the individual replicates used as the ‘sample size’ for the t test (nine point dose response done in triplicate). For statistical analysis of immunohistochemical results from in vivo studies, two-tailed Student's t test analysis and Bonferroni correction were done to identify significant differences compared with vehicle control group (multiple use of a single vehicle control group) with a cumulative minimal requirement of P<0.05.

Phospho AKT Ser473 = assay: Immunohistochemical analysis of phosphorylation in H1975 xenografts; format: in vivo, mouse; conditions: 14-day dosing
Protocol: as §1, §2

[2] = tested on: subjects with non-small-cell lung cancer; assay: Clinical Study XL-647-201 (Phase 2, NSCLC front-line); format: in vivo, human; conditions: Intermittent 5&9 schedule
From the text: Study XL-647-201: Subjects with non-small-cell lung cancer (NSCLC) (n=52) of adenomacarcinoma histology, Stage IIIB, with malignant pleural effusion, or Stage IV previously untreated for metastatic disease were enrolled. Subjects were selected for clinical characteristics predictive of response to EGFR inhibitors (Asian, female, and/or minimal and remote smoking history).

[3] = tested on: subjects with relapsed or recurrent NSCLC; assay: Clinical Study XL-647-203 (Phase 2, relapsed or recurrent NSCLC); format: in vivo, human; conditions: n=41
From the text: Study XL-647-203: Subjects (n=41) with relapsed or recurrent NSCLC (Stage IIIB or IV) with documented progressive disease after benefit from single agent treatment with erlotinib or gefitinib or with a known EGFR T790M mutation were enrolled.

COc1cc2c(Nc3ccc(Cl)c(Cl)c3F)ncnc2cc1OC[C@@H]1C[C@@H]2CN(C)C[C@@H]2C1 [XL-647, N-(3,4-dichloro-2-fluorophenyl)-7-({[(3aR,5r,6aS)-2-methyloctahydrocyclopenta[c]pyrrol-5-yl]methyl}oxy)-6-(methyloxy)quinazolin-4-amine]
Inhibition, 10 μM XL-647 [1]: 32.32% | CD31 Analysis % Reduction (H1975 xenografts; 10 mg/kg): 30.0^b % | CD31 Analysis MVC (H1975 xenografts; 10 mg/kg): 44 | Ki67 Expression % Cells (H1975 xenografts; 10 mg/kg): 27% | Ki67 Expression % Reduction (H1975 xenografts; 10 mg/kg): 23.2^b % | TUNEL % Cells (H1975 xenografts; 10 mg/kg): 6% | CD31 Analysis % Reduction (H1975 xenografts; 30 mg/kg): 46.1^a % | CD31 Analysis MVC (H1975 xenografts; 30 mg/kg): 34 | Ki67 Expression % Cells (H1975 xenografts; 30 mg/kg): 20% | Ki67 Expression % Reduction (H1975 xenografts; 30 mg/kg): 41.9^a % | TUNEL % Cells (H1975 xenografts; 30 mg/kg): 11% | CD31 Analysis % Reduction (H1975 xenografts; 100 mg/kg): 69.6^a % | CD31 Analysis MVC (H1975 xenografts; 100 mg/kg): 19 | Ki67 Expression % Cells (H1975 xenografts; 100 mg/kg): 8.9% | Ki67 Expression % Reduction (H1975 xenografts; 100 mg/kg): 74.6^a % | TUNEL % Cells (H1975 xenografts; 100 mg/kg): 15% | Phospho AKT Ser473 % Cells (Phospho AKT Ser473; 10 mg/kg): 19 ± 2.1% | Phospho AKT Ser473 % Reduction (Phospho AKT Ser473; 10 mg/kg): 53.6^a % | Phospho AKT Ser473 % Cells (Phospho AKT Ser473; 30 mg/kg): 12 ± 1.9% | Phospho AKT Ser473 % Reduction (Phospho AKT Ser473; 30 mg/kg): 72.4^a % | Phospho AKT Ser473 % Cells (Phospho AKT Ser473; 100 mg/kg): 11 ± 1.9% | Phospho AKT Ser473 % Reduction (Phospho AKT Ser473; 100 mg/kg): 74.4^a % | clinical benefit rate (PR+SD) ([2]; 38 evaluable): 71% | subjects with PR ([2]; of 38 evaluable): 10 subjects | subjects with SD lasting 3 months or more ([2]; of 38 evaluable): 17 subjects | subjects with PR [3]: one | subjects with SD as best response [3]: 19 subjects
